Source: patent US20100286154A1, “ANTIHELMINTIC PASTE” (priority 2007, published 2010)

Assay: Paste stability test (storage in glass containers, assay of active ingredients by HPLC)
Assay type: physicochemical
Details: paste composition of Example 2, glass containers
Excerpt: The paste composition of Example 2 was stored in glass containers at different temperatures for up to 12 months and assay of both active ingredients followed by HPLC analysis at given time points (3-, 6- and 12-months).

Compound: O=C(C1CCCCC1)N1CC(=O)N2CCc3ccccc3C2C1 (stereo not drawn) [Praziquantel, 2-(cyclohexylcarbonyl)-1,2,3,6,7,11b-hexahydro-4H-pyrazino[2,1-a]isoquinoline-4-one]
- Content in % of start value (5° C., 3 month): 102.20%
- Content in % of start value (5° C., 6 month): 103.98%
- Content in % of start value (5° C., 12 month): 103.56%
- Content in % of start value (25° C., 3 month): 102.52%
- Content in % of start value (25° C., 6 month): 101.99%
- Content in % of start value (25° C., 12 month): 102.73%
- Content in % of start value (30° C., 3 month): 100.63%
- Content in % of start value (30° C., 6 month): 102.31%
- Content in % of start value (30° C., 12 month): 102.62%
- Content in % of start value (40° C., 3 month): 101.36%
- Content in % of start value (40° C., 6 month): 102.10%
- Content in % of start value (40° C., 12 month): 100.94%
